Experimental data taken from patent publication US20230045421A1 (priority 2018, published 2023).

system: HBV rcDNA; experiment: HepDE19 assay with bDNA quantitation of HBV rcDNA; format: cell-based, hepatitis B virus; details: HepDE19 assay, inhibition of formation of rcDNA; read-out: DE-19bDNA EC50
Outline: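 HepDE19 cells (HepG2-derived, Tet-regulated HBV replication) were deprived of tetracycline and then exposed to compounds for 7 days at 37 °C in 0.5% DMSO, 8-point titration from 25 μM. rcDNA was quantified by bDNA and EC50/EC90 came from 4-parameter fits. CC50 was measured by CellTiter-Glo ATP content on replicate plates after 4 days.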

**Q.** `CC(c1cnc(NCc2nc[nH]n2)c2ccccc12)N(C)C(=O)Nc1ccc(F)c(Cl)c1` (single isomer, unassigned) [Compound 248, 1-(1-(1-(((1H-1,2,4-Triazol-3-yl)methyl)amino)isoquinolin-4-yl)ethyl)-3-(3-chloro-4-fluorophenyl)-1-methylurea] was tested. Which EC50 did it give?
**A.** 9.1 µM

**Q.** For `CC(c1cn(C(C)C)c(=O)c2ccccc12)N(C)C(=O)Nc1ccc(F)c(Cl)c1` (single isomer, unassigned) [Compound 188, 3-(3-Chloro-4-fluorophenyl)-1-(1-(2-isopropyl-1-oxo-1,2-dihydroisoquinolin-4-yl)ethyl)-1-methylurea], which EC50 is on record?
**A.** 1.8 µM

**Q.** For `CC(c1c[nH]c(=O)c2ccccc12)N(CCS(N)(=O)=O)C(=O)Nc1ccc(F)c(Cl)c1` (single isomer, unassigned) [Compound 119, 2-(3-(3-Chloro-4-fluorophenyl)-1-(1-(1-oxo-1,2-dihydroisoquinolin-4-yl)ethyl)ureido) ethanesulfonamide], which EC50 is on record?
**A.** 0.07 µM

**Q.** Which EC50 does the source give for `Cc1[nH]c(=O)c2ccccc2c1C(C)N(C)C(=O)Nc1ccc(F)c(Cl)c1` (single isomer, unassigned) [Compound 222, 3-(3-Chloro-4-fluorophenyl)-1-methyl-1-(1-(3-methyl-1-oxo-1,2-dihydroisoquinolin-4-yl)ethyl)urea] here?
**A.** 0.62 µM

**Q.** For `CC(c1cnc(OCc2ncn(C)n2)c2ccccc12)N(C)C(=O)Nc1ccc(F)c(Cl)c1` (single isomer, unassigned) [Compound 133, 3-(3-Chloro-4-fluorophenyl)-1-methyl-1-(1-(1-((1-methyl-1H-1,2,4-triazol-3-yl)methoxy)isoquinolin-4-yl)ethyl)urea], which EC50 is on record?
**A.** 5.9 µM

**Q.** How did the EC50 turn out when `CNc1ncc(C(C)N(C)C(=O)Nc2ccc(F)c(Cl)c2)c2ccccc12` (single isomer, unassigned) [Compound 232, 3-(3-Chloro-4-fluorophenyl)-1-methyl-1-(1-(1-(methylamino)isoquinolin-4-yl)ethyl)urea] was run?
**A.** 0.12 µM

**Q.** Which EC50 does the source give for `CC(c1cnc(OCc2ncn(C)n2)c2ccccc12)N(CCCO)C(=O)Nc1ccc(F)c(Cl)c1` (single isomer, unassigned) [Compound 256, 3-(3-Chloro-4-fluorophenyl)-1-(3-hydroxypropyl)-1-(1-(1-((1-methyl-1H-1,2,4-triazol-3-yl)methoxy)isoquinolin-4-yl)ethyl)urea] here?
**A.** 0.013 µM

**Q.** Which EC50 does the source give for `CC(c1c[nH]c(=O)c2ccccc12)N(CCNCC(F)F)C(=O)Nc1ccc(F)c(Cl)c1` (single isomer, unassigned) [Compound 199, 3-(3-Chloro-4-fluorophenyl)-1-(2-((2,2-difluoroethyl)amino)ethyl)-1-(1-(1-oxo-1,2-dihydroisoquinolin-4-yl)ethyl)urea] here?
**A.** 2.2 µM

**Q.** How did the EC50 turn out when `CC(c1c[nH]c(=O)c2ccccc12)N(C[C@H](C)O)C(=O)Nc1ccc(F)c(Cl)c1` (single isomer, unassigned) [Compound 217] was run?
**A.** 8.2 µM

**Q.** With `CCN(C(=O)Nc1ccc(F)c(Cl)c1)C(C)c1c[nH]c(=O)c2cnccc12` (single isomer, unassigned) [Compound 151, 3-(3-Chloro-4-fluorophenyl)-1-ethyl-1-(1-(1-oxo-1,2-dihydro-2,7-naphthyridin-4-yl)ethyl)urea] as the compound, how does the EC50 read?
**A.** 2 µM

**Q.** For `CCNc1ncc(C(C)N(C)C(=O)Nc2ccc(F)c(Cl)c2)c2ccccc12` (single isomer, unassigned) [Compound 241, 3-(3-Chloro-4-fluorophenyl)-1-(1-(1-(ethylamino)isoquinolin-4-yl)ethyl)-1-methylurea], which EC50 is on record?
**A.** 0.11 µM

same assay, conditions: HepDE19 assay, inhibition of formation of relaxed circular DNA (rcDNA), bDNA quantitation; read-out: DE-19bDNA EC50

**Q.** Which EC50 does the source give for `CC(c1c[nH]c(=O)c2ccccc12)N(Cc1cncs1)C(=O)Nc1ccc(F)c(Cl)c1` (single isomer, unassigned) [Compound 323, 3-(3-Chloro-4-fluorophenyl)-1-(1-(1-oxo-1,2-dihydroisoquinolin-4-yl)ethyl)-1-(thiazol-5-ylmethyl)urea] here?
**A.** 0.085 µM

**Q.** With `CC(c1c[nH]c(=O)c2c(F)cccc12)N(C)C(=O)Nc1ccc(F)c(Cl)c1` (single isomer, unassigned) [Compound 356, 3-(3-Chloro-4-fluorophenyl)-1-(1-(8-fluoro-1-oxo-1,2-dihydroisoquinolin-4-yl)ethyl)-1-methylurea] as the compound, how does the EC50 read?
**A.** 1.9 µM

**Q.** How did the EC50 turn out when `CC(c1c[nH]c(=O)c2c(F)c(F)ccc12)N(C)C(=O)Nc1ccc2cc[nH]c2c1` (single isomer, unassigned) [Compound 499, 1-(1-(7,8-Difluoro-1-oxo-1,2-dihydroisoquinolin-4-yl)ethyl)-3-(1H-indol-6-yl)-1-methylurea] was run?
**A.** 0.3 µM

**Q.** For `CC(c1cnc(C#N)c2ccccc12)N(C)C(=O)Nc1ccc(F)c(Cl)c1` (single isomer, unassigned) [Compound 336, 3-(3-Chloro-4-fluorophenyl)-1-(1-(1-cyanoisoquinolin-4-yl)ethyl)-1-methylurea], which EC50 is on record?
**A.** 19 µM

**Q.** Which EC50 does the source give for `CC(c1c[nH]c(=O)c2c(F)cc(F)cc12)N(CCS(N)(=O)=O)C(=O)Nc1ccc(F)c(Cl)c1` (single isomer, unassigned) [Compound 390, 2-(3-(3-Chloro-4-fluorophenyl)-1-(1-(6,8-difluoro-1-oxo-1,2-dihydroisoquinolin-4-yl)ethyl)ureido) ethane-1-sulfonamide] here?
**A.** 0.017 µM

**Q.** For `CC(c1cnc(-n2ccnn2)c2ccccc12)N(C)C(=O)Nc1ccc(F)c(Cl)c1` (single isomer, unassigned) [Compound 424, 1-(1-(1-(1H-1,2,3-Triazol-1-yl)isoquinolin-4-yl)ethyl)-3-(3-chloro-4-fluorophenyl)-1-methylurea], which EC50 is on record?
**A.** 6.4 µM

**Q.** With `CC(c1c[nH]c(=O)c2c(F)cccc12)N(C)C(=O)Nc1ccc(F)c(Cl)c1` (single isomer, unassigned) [Compound 357, 3-(3-Chloro-4-fluorophenyl)-1-(1-(8-fluoro-1-oxo-1,2-dihydroisoquinolin-4-yl)ethyl)-1-methylurea] as the compound, how does the EC50 read?
**A.** 0.04 µM

**Q.** Which EC50 does the source give for `CNC(=O)c1ncc(C(C)N(C)C(=O)Nc2ccc(F)c(Cl)c2)c2ccccc12` (single isomer, unassigned) [Compound 316, 4-(1-(3-(3-Chloro-4-fluorophenyl)-1-methylureido)ethyl)-N-methylisoquinoline-1-carboxamide] here?
**A.** 7.5 µM

**Q.** For `CC(c1c[nH]c(=O)c2c(F)c(F)ccc12)N(CCS(N)(=O)=O)C(=O)Nc1ccc(F)c(Cl)c1` (single isomer, unassigned) [Compound 391, 2-(3-(3-Chloro-4-fluorophenyl)-1-(1-(7,8-difluoro-1-oxo-1,2-dihydroisoquinolin-4-yl)ethyl)ureido) ethane-1-sulfonamide], which EC50 is on record?
**A.** 2.9 µM

**Q.** `CCN(C(=O)Nc1ccc(F)c(F)c1)C(C)c1c[nH]c(=O)c2c(F)c(F)ccc12` (single isomer, unassigned) [Compound 462, 1-(1-(7,8-Difluoro-1-oxo-1,2-dihydroisoquinolin-4-yl)ethyl)-3-(3,4-difluorophenyl)-1-ethylurea] was tested. Which EC50 did it give?
**A.** 0.92 µM

**Q.** With `CC(C)CN(C(=O)Nc1ccc(F)cc1)C(C)c1c[nH]c(=O)c2c(F)cc(F)cc12` (single isomer, unassigned) [Compound 376, 1-(1-(6,8-Difluoro-1-oxo-1,2-dihydroisoquinolin-4-yl)ethyl)-3-(4-fluorophenyl)-1-isobutylurea] as the compound, how does the EC50 read?
**A.** 0.007 µM

**Q.** With `CCN(C(=O)Nc1ccc(F)c(Cl)c1)C(C)c1c[nH]c(=O)c2cc(F)c(F)cc12` (single isomer, unassigned) [Compound 407, 3-(3-Chloro-4-fluorophenyl)-1-(1-(6,7-difluoro-1-oxo-1,2-dihydroisoquinolin-4-yl)ethyl)-1-ethylurea] as the compound, how does the EC50 read?
**A.** 0.006 µM

**Q.** `CC(c1cnc(OCc2nc[nH]n2)c2cc(F)c(F)cc12)N(CCCO)C(=O)Nc1ccc(F)c(Cl)c1` (single isomer, unassigned) [Compound 365, 1-(1-(1-((1H-1,2,4-Triazol-3-yl)methoxy)-6,7-difluoroisoquinolin-4-yl)ethyl)-3-(3-chloro-4-fluorophenyl)-1-(3-hydroxypropyl)urea] was tested. Which EC50 did it give?
**A.** 0.009 µM

**Q.** Which EC50 does the source give for `CC(c1c[nH]c(=O)c2c(F)c(F)ccc12)N(C)C(=O)NCc1ccc(F)c(Cl)c1` (single isomer, unassigned) [Compound 497, 3-(3-Chloro-4-fluorobenzyl)-1-(1-(7,8-difluoro-1-oxo-1,2-dihydroisoquinolin-4-yl)ethyl)-1-methylurea] here?
**A.** 0.26 µM

same assay, conditions: Hepatitis B virus, HepDE19, HepDE19 assay, inhibition of formation of rcDNA; read-out: DE-19bDNA EC50

**Q.** With `C[C@H](c1c[nH]c(=O)c2ccccc12)N(CC(F)F)C(=O)Nc1ccc(F)c(Cl)c1` [Compound 96, (R)-3-(3-Chloro-4-fluorophenyl)-1-(2,2-difluoroethyl)-1-(1-(1-oxo-1,2-dihydroisoquinolin-4-yl)ethyl)urea] as the compound, how does the EC50 read?
**A.** 0.22 µM

**Q.** Which EC50 does the source give for `CC(C)CN(C(=O)Nc1ccc(F)cc1)C(C)c1cn(CC(F)(F)F)c(=O)c2ccccc12` (racemic) [Compound 235, 3-(4-Fluorophenyl)-1-isobutyl-1-(1-(1-oxo-2-(2,2,2-trifluoroethyl)-1,2-dihydroisoquinolin-4-yl)ethyl)urea] here?
**A.** 0.21 µM

**Q.** `CC(c1c[nH]c(=O)c2ccccc12)N(CCC#N)C(=O)Nc1ccc(F)c(Cl)c1` (racemic) [Compound 103, 3-(3-chloro-4-fluorophenyl)-1-(2-cyanoethyl)-1-(1-(1-oxo-1,2-dihydroisoquinolin-4-yl)ethyl)urea] was tested. Which EC50 did it give?
**A.** 0.27 µM

same assay, conditions: Hepatitis B virus, HepDE19, read-out: DE-19bDNA EC50 (μM), HepDE19 assay, inhibition of formation of rcDNA

**Q.** With `C[C@H](c1c[nH]c(=O)c2ccccc12)N(C)C(=O)Nc1ccnc(Cl)c1` [Compound 94, (R)-3-(2-Chloropyridin-4-yl)-1-methyl-1-(1-(1-oxo-1,2-dihydroisoquinolin-4-yl)ethyl)urea] as the compound, how does the EC50 read?
**A.** 1 µM

**Q.** For `CCN(C(=O)Nc1ccc(F)c(Cl)c1)C(c1ccccc1)c1c[nH]c(=O)c2ccccc12` (single isomer, unassigned) [Compound 69, 3-(3-Chloro-4-fluorophenyl)-1-ethyl-1-((1-oxo-1,2-dihydroisoquinolin-4-yl)(phenyl)methyl)urea], which EC50 is on record?
**A.** 9.7 µM
